Results reported in patent US11452682B2, “Toothpaste composition for alleviating dentin hyperesthesia” (HYSENSBIO, priority 2018, dated 2022).

tested on: DSPP gene; assay: mRNA level of DSPP gene in MDPC-23 cells by RT-PCR and real-time PCR; format: cell-based, mouse; conditions: cultured 48 hours with peptide, relative ratio to mRNA level in untreated control, Gapdh internal control, repeated three times
Description: The MDPC-23 cells cultured in Example 2-1 were treated with the peptides of each group synthesized in Example 1, then cultured for 48 hours. The mRNA level of the DSPP, an odontoblast differentiation marker gene, expressed in the MDPC-23 cells were measured, and the measured mRNA level of each DSPP gene was converted into a relative ratio to the mRNA level of the DSPP gene measured in control (Tables 13 to 24). In addition, the average value of the mRNA level of the DSPP gene measured according to the peptides of each group was compared (FIG. 1B). At this time, as a control, MDPC-23 cells that were not treated with the peptide promoting differentiation of odontoblast were used.
The expression level of the DSPP gene was measured through RT-PCR and real-time PCR analysis: Specifically, total RNA was extracted from the MDPC-23 cells using TRIzol reagent. 2 μg of the total RNA, 1 μl of reverse transcriptase, and 0.5 μg of oligo (oligo; dT) were used to synthesize cDNA. The synthesized cDNA was used in a real-time polymerase chain reaction. The real-time polymerase chain reaction was performed on an ABI PRISM 7500 sequence detection system (Applied Biosystems) and an SYBR GREEN PCR Master Mix (Takara, Japan). The real-time polymerase chain reaction was performed under conditions of 94° C., 1 min; 95° C., 15 sec; 60° C., 34 sec for 40 cycles. Results were analyzed by a comparative cycle threshold (CT) method. At this time, the Gapdh gene was used as the internal control group, and the measured value was repeated three times. The mean value and standard deviation value thereof were used.

Row | Substance | mRNA level of Dspp gene Mean
1 | 47 (KYRQKKRSKY; Novel peptide) [compound 47] | 1.697
2 | 23 (KYQRKKRNYK; Novel peptide) [compound 23] | 2.171
3 | 86 (KYKQKRKNYK; Novel peptide) [compound 86] | 3.705
4 | 51 (KYRQRRKNYK; Novel peptide) [compound 51] | 1.601
5 | 40 (KYRQKRRNKY; Novel peptide) [compound 40] | 2.219
6 | 36 (KYRQRRRNKY; Novel peptide) [compound 36] | 2.319
7 | 9 (KYQRRKKSKY; Novel peptide) [compound 9] | 1.854
8 | 55 (KYRQKKRNYK; Novel peptide) [compound 55] | 1.663
9 | 28 (KYQRRRRSYK; Novel peptide) [compound 28] | 2.453
10 | 91 (KYKQRRKSYK; Novel peptide) [compound 91] | 4.362
11 | 90 (KYKQRKRSYK; Novel peptide) [compound 90] | 4.811
12 | 64 (KYRQKRRSYK; Novel peptide) [compound 64] | 1.967
13 | 80 (KYKQKRRSKY; Novel peptide) [compound 80] | 1.837
14 | 39 (KYRQKKRNKY; Novel peptide) [compound 39] | 1.712
15 | 56 (KYRQKRRNYK; Novel peptide) [compound 56] | 1.701
16 | 53 (KYRQKKKNYK; Novel peptide) [compound 53] | 1.592
17 | 34 (KYRQRKRNKY; Novel peptide) [compound 34] | 1.931
18 | 21 (KYQRKKKNYK; Novel peptide) [compound 21] | 1.893
19 | 26 (KYQRRKRSYK; Novel peptide) [compound 26] | 2.193
20 | 62 (KYRQKRKSYK; Novel peptide) [compound 62] | 1.672
21 | 31 (KYQRKKRSYK; Novel peptide) [compound 31] | 2.371
22 | 72 (KYKQKRRNKY; Novel peptide) [compound 72] | 2.011
23 | 12 (KYQRRRRSKY; Novel peptide) [compound 12] | 1.548
24 | 25 (KYQRRKKSYK; Novel peptide) [compound 25] | 2.371

Row | Substance | mRNA level of Dspp gene Mean
25 | 14 (KYQRKRKSKY; Novel peptide) [compound 14] | 1.846
26 | 19 (KYQRRRKNYK; Novel peptide) [compound 19] | 1.931
27 | 70 (KYKQKRKNKY; Novel peptide) [compound 70] | 1.927
28 | 93 (KYKQKKKSYK; Novel peptide) [compound 93] | 4.525
29 | 8 (KYQRKRRNKY; Novel peptide) [compound 8] | 1.639
30 | 85 (KYKQKKKNYK; Novel peptide) [compound 85] | 3.67
31 | 38 (KYRQKRKNKY; Novel peptide) [compound 38] | 2.116
32 | 29 (KYQRKKKSYK; Novel peptide) [compound 29] | 1.883
33 | 18 (KYQRRKRNYK; Novel peptide) [compound 18] | 2.319
34 | 41 (KYRQRKKSKY; Novel peptide) [compound 41] | 1.546
35 | 83 (KYKQRRKNYK; Novel peptide) [compound 83] | 3.572
36 | 76 (KYKQRRRSKY; Novel peptide) [compound 76] | 2.351
37 | 22 (KYQRKRKNYK; Novel peptide) [compound 22] | 2.412
38 | 89 (KYKQRKKSYK; Novel peptide) [compound 89] | 4.211
39 | 87 (KYKQKKRNYK; Novel peptide) [compound 87] | 3.888
40 | 96 (KYKQKRRSYK; Novel peptide) [compound 96] | 5.211
41 | 43 (KYRQRRKSKY; Novel peptide) [compound 43] | 1.669
42 | 48 (KYRQKRRSKY; Novel peptide) [compound 48] | 1.558
43 | 84 (KYKQRRRNYK; Novel peptide) [compound 84] | 3.702
44 | 69 (KYKQKKKNKY; Novel peptide) [compound 69] | 2.011
45 | 1 (KYQRRKKNKY; Novel peptide) [compound 1] | 1.754
46 | 11 (KYQRRRKSKY; Novel peptide) [compound 11] | 1.639
47 | 50 (KYRQRKRNYK; Novel peptide) [compound 50] | 1.887
48 | 68 (KYKQRRRNKY; Novel peptide) [compound 68] | 1.432

Row | Substance | mRNA level of Dspp gene Mean
49 | 88 (KYKQKRRNYK; Novel peptide) [compound 88] | 4.021
50 | 81 (KYKQRKKNYK; Novel peptide) [compound 81] | 3.092
51 | 42 (KYRQRKRSKY; Novel peptide) [compound 42] | 1.586
52 | 95 (KYKQKKRSYK; Novel peptide) [compound 95] | 4.62
53 | 58 (KYRQRKRSYK; Novel peptide) [compound 58] | 1.998
54 | 27 (KYQRRRKSYK; Novel peptide) [compound 27] | 1.993
55 | 63 (KYRQKKRSYK; Novel peptide) [compound 63] | 1.769
56 | 24 (KYQRKRRNYK; Novel peptide) [compound 24] | 2.212
57 | 52 (KYRQRRRNYK; Novel peptide) [compound 52] | 2.019
58 | 35 (KYRQRRKNKY; Novel peptide) [compound 35] | 1.983
59 | 7 (KYQRKKRNKY; Novel peptide) [compound 7] | 1.864
60 | 59 (KYRQRRKSYK; Novel peptide) [compound 59] | 1.792
61 | 78 (KYKQKRKSKY; Novel peptide) [compound 78] | 2.635
62 | 75 (KYKQRRKSKY; Novel peptide) [compound 75] | 1.997
63 | 74 (KYKQRKRSKY; Novel peptide) [compound 74] | 2.011
64 | 45 (KYRQKKKSKY; Novel peptide) [compound 45] | 1.532
65 | 54 (KYRQKRKNYK; Novel peptide) [compound 54] | 1.437
66 | 5 (KYQRKKKNKY; Novel peptide) [compound 5] | 1.639
67 | 92 (KYKQRRRSYK; Novel peptide) [compound 92] | 4.211
68 | 16 (KYQRKRRSKY; Novel peptide) [compound 16] | 1.739
69 | 67 (KYKQRRKNKY; Novel peptide) [compound 67] | 1.777
70 | 82 (KYKQRKRNYK; Novel peptide) [compound 82] | 3.361
71 | 66 (KYKQRKRNKY; Novel peptide) [compound 66] | 1.627
